From ChEMBL document CHEMBL1151975, “Isolation, structure, and antibacterial activities of lucensimycins D-G, discovered from Streptomyces lucensis MA7349 using an antisense strategy” (2009)
In brackets after ≈: the same amount, converted by molar mass. Values belong to the compound of their own block, whether it stands above or below them. Activity calls are given as the source filed them. The rule behind the calls is not given here.

Legend:
Streptococcus pneumoniae = assay: Antimicrobial activity against Streptococcus pneumoniae CL 2883; assay type: functional
Bacillus subtilis = assay: Antimicrobial activity against Bacillus subtilis at 250 ug/ml; assay type: functional, organism-based
Escherichia coli = assay: Antimicrobial activity against Escherichia coli at 250 ug/ml; assay type: functional, organism-based
Candida albicans = assay: Antimicrobial activity against Candida albicans at 250 ug/ml; assay type: functional, organism-based
Haemophilus influenzae = assay: Antimicrobial activity against Haemophilus influenzae at 250 ug/ml; assay type: functional, organism-based
Enterococcus faecalis = assay: Antimicrobial activity against Enterococcus faecalis at 250 ug/ml; assay type: functional, organism-based
Staphylococcus aureus [1] = assay: Antimicrobial activity against Staphylococcus aureus Smith at 250 ug/ml; assay type: functional, organism-based
Staphylococcus aureus [2] = assay: Antimicrobial activity against Staphylococcus aureus Smith; assay type: functional
Staphylococcus aureus [3] = assay: Antimicrobial activity against Staphylococcus aureus bearing antisense rpsD gene by two-plate assay; assay type: functional
Streptomyces noursei = assay: Antimicrobial activity against Streptomyces albulus MJ202-72F3; assay type: functional
Staphylococcus aureus [4] = assay: Antimicrobial activity against Staphylococcus aureus EP167 at 0.5 mg/ml by two-plate assay; assay type: functional, organism-based

SMILES: CC(=O)O[C@@H]1C[C@H]2[C@@H](C=C[C@H]3C[C@@H](/C=C/C=C/C=C/C(=O)O)[C@@]4(C(=O)O[C@@H](CO)C4=O)C(=O)[C@@]32C)[C@H](O)[C@H]1C
- Activity (Streptococcus pneumoniae): inactive
- Activity (Bacillus subtilis): inactive
- Activity (Escherichia coli): inactive
- Activity (Candida albicans): inactive
- Activity (Haemophilus influenzae): inactive
- Activity (Enterococcus faecalis): inactive
- Activity (Staphylococcus aureus [1]): inactive

SMILES: C=C(OC(=O)[C@@H]1C(=O)[C@@]2(C)[C@@H](C=C[C@H]3[C@H](O)[C@@H](C)[C@H](OC(C)=O)C[C@@H]32)C[C@H]1/C=C/C=C/C=C/C(=O)O)C(=O)O
- Activity (Streptococcus pneumoniae): inactive
- Activity (Bacillus subtilis): inactive
- Activity (Escherichia coli): inactive
- Activity (Candida albicans): inactive
- Activity (Haemophilus influenzae): inactive
- Activity (Enterococcus faecalis): inactive
- Activity (Staphylococcus aureus [1]): inactive

SMILES: CCC(O)C(C)/C=C/C=C/C(O)CC1C=CC2CC(C)CC(C)C2C1(C)C(=O)C1=C(O)C(O)NC1=O (stereo not drawn) [DELAMINOMYCIN A]
- MIC (Streptomyces noursei): 25 µg/mL (≈ 49.8 µM)

SMILES: CCC(O)C(C)/C=C/C=C/C(O)CC1C=CC2CC(C)CC(C)C2C1(C)C(=O)C1=C(O)C(OC)NC1=O (stereo not drawn) [DELAMINOMYCIN B]
- MIC (Streptomyces noursei): 25 µg/mL (≈ 48.5 µM)

SMILES: CC(=O)N[C@H](CSC[C@@H]1OC(=O)[C@@]2(C1=O)C(=O)[C@@]1(C)[C@@H](C=C[C@H]3[C@H](O)[C@@H](C)[C@H](OC(C)=O)C[C@@H]31)C[C@H]2/C=C/C=C/C=C/C(=O)O)C(=O)N[C@H]1[C@@H](O[C@@H]2[C@@H](O)[C@H](O)[C@@H](O)[C@H](O)[C@@H]2O)O[C@@H](CO)[C@@H](O)[C@@H]1O
- Activity (Streptococcus pneumoniae): inactive
- Activity (Bacillus subtilis): inactive
- Activity (Escherichia coli): inactive
- Activity (Candida albicans): inactive
- Activity (Haemophilus influenzae): inactive
- Activity (Enterococcus faecalis): inactive
- Activity (Staphylococcus aureus [1]): inactive
- Activity (Staphylococcus aureus [4]): Active

SMILES: C=C1OC(=O)[C@@]2(C1=O)C(=O)[C@@]1(C)[C@@H](C=C[C@H]3[C@H](O)[C@@H](C)[C@H](OC(C)=O)C[C@@H]31)C[C@H]2/C=C/C=C/C=C/C(=O)O [LUCENSIMYCIN A]
- Activity (Streptococcus pneumoniae): inactive
- Activity (Bacillus subtilis): inactive
- inhibition zone (IZ) (Staphylococcus aureus [3]): 12 mm
- Activity (Escherichia coli): inactive
- Activity (Candida albicans): inactive
- Activity (Haemophilus influenzae): inactive
- Activity (Enterococcus faecalis): inactive
- Activity (Staphylococcus aureus [1]): inactive
- Activity (Staphylococcus aureus [4]): Active

SMILES: CC(=O)N[C@H](CSC[C@H]1OC(=O)[C@@]2(C1=O)C(=O)[C@@]1(C)[C@@H](C=C[C@H]3[C@H](O)[C@@H](C)[C@H](OC(C)=O)C[C@@H]31)C[C@H]2/C=C/C=C/C=C/C(=O)O)C(=O)N[C@H]1[C@@H](O[C@@H]2[C@@H](O)[C@H](O)[C@@H](O)[C@H](O)[C@@H]2O)O[C@@H](CO)[C@@H](O)[C@@H]1O
- Activity (Streptococcus pneumoniae): inactive
- Activity (Bacillus subtilis): inactive
- Activity (Escherichia coli): inactive
- Activity (Candida albicans): inactive
- Activity (Haemophilus influenzae): inactive
- Activity (Enterococcus faecalis): inactive
- Activity (Staphylococcus aureus [1]): inactive
- Activity (Staphylococcus aureus [4]): Active

Continued, in another order:

- MIC (Streptococcus pneumoniae): 8 µg/mL (≈ 11.6 µM)
- MIC (Staphylococcus aureus [2]): 32 µg/mL (≈ 46.5 µM)
SMILES: CC(=O)N[C@H](CSC[C@H]1OC(=O)[C@@]2(C1=O)C(=O)[C@@]1(C)[C@@H](C=C[C@H]3[C@H](O)[C@@H](C)[C@H](OC(C)=O)C[C@@H]31)C[C@H]2/C=C/C=C/C=C/C(=O)O)C(=O)O [LUCENSIMYCIN E]
- inhibition zone (IZ) (Staphylococcus aureus [3]): 12 mm

- MIC (Streptomyces noursei): 25 µg/mL (≈ 51.5 µM)
SMILES: CCC(O)C(C)/C=C/C=C/C(O)CC1C=CC2CC(C)CC(C)C2C1(C)C(=O)C1=C(O)CNC1=O (stereo not drawn) [DELAMINOMYCIN C]

- MIC (Streptococcus pneumoniae): 250 µg/mL (≈ 363 µM)
SMILES: CC(=O)N[C@H](CSC[C@@H]1OC(=O)[C@@]2(C1=O)C(=O)[C@@]1(C)[C@@H](C=C[C@H]3[C@H](O)[C@@H](C)[C@H](OC(C)=O)C[C@@H]31)C[C@H]2/C=C/C=C/C=C/C(=O)O)C(=O)O [LUCENSIMYCIN D]
- inhibition zone (IZ) (Staphylococcus aureus [3]): 12 mm
- Activity (Staphylococcus aureus [1]): inactive
